The NIST ThermoML archive (doi:10.1021/je8007759)

Experiment: xn = mol fraction of the nth substance listed

CC1CCC(=O)O1 (stereo not given) [γ-valerolactone] + O=C=O
mass density [kg/m3], Fluid (supercritical or subcritical phases), Pycnometric method
Settings	308.2 K	313.2 K
7520 kPa, x1 = 0.1	928	–
7560 kPa, x1 = 0.05	838	–
7630 kPa, x1 = 0.01	665	–
7630 kPa, x1 = 0.05	842	–
7640 kPa, x1 = 0.025	781	–
7650 kPa, x1 = 0.01	669	–
7670 kPa, x1 = 0.01	673	–
7670 kPa, x1 = 0.1	932	–
7690 kPa, x1 = 0.01	677	–
7710 kPa, x1 = 0.05	845	–
7710 kPa, x1 = 0.15	979	–
7720 kPa, x1 = 0.01	681	–
7720 kPa, x1 = 0.025	786	–
7750 kPa, x1 = 0.01	685	–
7790 kPa, x1 = 0.01	690	–
7810 kPa, x1 = 0.1	935	–
7820 kPa, x1 = 0.025	792	–
7830 kPa, x1 = 0.01	694	–
7850 kPa, x1 = 0.05	850	–
7870 kPa, x1 = 0.01	698	–
7910 kPa, x1 = 0.01	703	–
7930 kPa, x1 = 0.025	798	–
7970 kPa, x1 = 0.01	710	–
8050 kPa, x1 = 0.01	717	–
8060 kPa, x1 = 0.025	804	–
8110 kPa, x1 = 0.05	855	–
8150 kPa, x1 = 0.01	724	–
8170 kPa, x1 = 0.025	809	–
8200 kPa, x1 = 0.15	–	962
8230 kPa, x1 = 0.15	982	–
8300 kPa, x1 = 0.01	734	547
8310 kPa, x1 = 0.01	–	557
8320 kPa, x1 = 0.01	–	561
8330 kPa, x1 = 0.01	–	565
8340 kPa, x1 = 0.01	–	568
8340 kPa, x1 = 0.05	–	809
8340 kPa, x1 = 0.1	942	–
8350 kPa, x1 = 0.01	–	572
8350 kPa, x1 = 0.025	815	–
8370 kPa, x1 = 0.01	–	576
8370 kPa, x1 = 0.025	–	726
8380 kPa, x1 = 0.01	–	581
8380 kPa, x1 = 0.1	–	913
8390 kPa, x1 = 0.01	–	589
8400 kPa, x1 = 0.05	862	–
8410 kPa, x1 = 0.01	–	592
8410 kPa, x1 = 0.025	–	730
8420 kPa, x1 = 0.01	–	596
8430 kPa, x1 = 0.01	–	602
8440 kPa, x1 = 0.01	–	606
8450 kPa, x1 = 0.025	–	736
8460 kPa, x1 = 0.01	744	609
8460 kPa, x1 = 0.05	–	814
8470 kPa, x1 = 0.01	–	612
8480 kPa, x1 = 0.01	–	616
8500 kPa, x1 = 0.01	–	619
8510 kPa, x1 = 0.025	–	740
8520 kPa, x1 = 0.01	–	623
8520 kPa, x1 = 0.1	–	916
8530 kPa, x1 = 0.01	–	627
8530 kPa, x1 = 0.025	822	–
8550 kPa, x1 = 0.025	–	745
8560 kPa, x1 = 0.01	–	630
8580 kPa, x1 = 0.01	–	634
8580 kPa, x1 = 0.15	–	965
8600 kPa, x1 = 0.01	–	638
8620 kPa, x1 = 0.025	–	750
8630 kPa, x1 = 0.01	–	641
8650 kPa, x1 = 0.01	–	645
8670 kPa, x1 = 0.01	754	–
8670 kPa, x1 = 0.05	–	820
8680 kPa, x1 = 0.01	–	649
8680 kPa, x1 = 0.1	946	–
8700 kPa, x1 = 0.025	827	755
8720 kPa, x1 = 0.01	–	653
8750 kPa, x1 = 0.01	–	657
8750 kPa, x1 = 0.05	869	–
8760 kPa, x1 = 0.1	–	920
8780 kPa, x1 = 0.01	–	661
8780 kPa, x1 = 0.025	–	760
8810 kPa, x1 = 0.01	–	665
8830 kPa, x1 = 0.15	985	–
8850 kPa, x1 = 0.01	–	669
8880 kPa, x1 = 0.025	–	765
8880 kPa, x1 = 0.05	–	826
8890 kPa, x1 = 0.01	–	673
8910 kPa, x1 = 0.01	765	–
8940 kPa, x1 = 0.01	–	677
8940 kPa, x1 = 0.025	833	–
8960 kPa, x1 = 0.025	–	771
8990 kPa, x1 = 0.01	–	681
9000 kPa, x1 = 0.1	–	923
9040 kPa, x1 = 0.01	–	686
9060 kPa, x1 = 0.025	–	775
9070 kPa, x1 = 0.15	–	969
9100 kPa, x1 = 0.01	–	690
9140 kPa, x1 = 0.05	875	–
9150 kPa, x1 = 0.01	–	694
9180 kPa, x1 = 0.01	775	–
9180 kPa, x1 = 0.025	840	781
9180 kPa, x1 = 0.05	–	835
9200 kPa, x1 = 0.01	–	698
9280 kPa, x1 = 0.01	–	703
9280 kPa, x1 = 0.1	–	926
9310 kPa, x1 = 0.025	–	786
9340 kPa, x1 = 0.01	–	708
9380 kPa, x1 = 0.1	953	–
9400 kPa, x1 = 0.15	988	–
9410 kPa, x1 = 0.025	845	–
9430 kPa, x1 = 0.01	–	712
9440 kPa, x1 = 0.05	–	841
9450 kPa, x1 = 0.025	–	792
9500 kPa, x1 = 0.01	787	717
9510 kPa, x1 = 0.05	881	–
9550 kPa, x1 = 0.1	–	929
9590 kPa, x1 = 0.01	–	721
9590 kPa, x1 = 0.025	–	798
9670 kPa, x1 = 0.15	–	972
9680 kPa, x1 = 0.01	–	727
9700 kPa, x1 = 0.025	852	–
9710 kPa, x1 = 0.05	–	847
9780 kPa, x1 = 0.025	–	803
9880 kPa, x1 = 0.01	–	736
9880 kPa, x1 = 0.1	–	932
9890 kPa, x1 = 0.01	798	–
9970 kPa, x1 = 0.025	–	810
9980 kPa, x1 = 0.15	991	–
10000 kPa, x1 = 0.1	958	–
10030 kPa, x1 = 0.05	–	852
10120 kPa, x1 = 0.01	–	746
10180 kPa, x1 = 0.025	–	815
10180 kPa, x1 = 0.1	–	936
10310 kPa, x1 = 0.15	–	976
10350 kPa, x1 = 0.01	810	–
10370 kPa, x1 = 0.1	–	938
10390 kPa, x1 = 0.01	–	755
10390 kPa, x1 = 0.05	–	859
10400 kPa, x1 = 0.025	–	821
10540 kPa, x1 = 0.1	–	939
10620 kPa, x1 = 0.15	–	978
10630 kPa, x1 = 0.025	–	827
10680 kPa, x1 = 0.01	–	767
10720 kPa, x1 = 0.15	995	–
10750 kPa, x1 = 0.05	–	865
11040 kPa, x1 = 0.1	967	–
11360 kPa, x1 = 0.15	999	–
11550 kPa, x1 = 0.1	970	–
11980 kPa, x1 = 0.15	1002	–
12070 kPa, x1 = 0.1	974	–
12550 kPa, x1 = 0.1	978	–
12950 kPa, x1 = 0.15	1006	–
13110 kPa, x1 = 0.1	981	–
13620 kPa, x1 = 0.15	1009	–
13640 kPa, x1 = 0.1	984	–
14250 kPa, x1 = 0.1	989	–
14410 kPa, x1 = 0.15	1013	–
14770 kPa, x1 = 0.1	992	–
15180 kPa, x1 = 0.15	1016	–
16060 kPa, x1 = 0.15	1020	–
16850 kPa, x1 = 0.15	1023	–

308.2 K, Liquid, high pressure variable cell
Settings	mass density [kg/m3]
x1 = 0.01	663
x1 = 0.025	777
x1 = 0.05	834
x1 = 0.1	920
x1 = 0.15	972
